Source: patent publication US4985441A, “Anti-tumor agents” (Imperial Chemical Industries plc, priority 1988, dated 1991)

Columns and labels:
[1] = tested on: human breast, ovarian and liver cancer; settings: clinical; literature references; cited from earlier work
liver and kidney = settings: clinical; literature references; cited from earlier work
L1210 cell line = assay: Test (b): inhibition of growth of the leukaemia cell line L1210 in cell culture; type: cell-based; settings: Mus musculus, read-out: IC50 against the L1210 cell line [Test (b)]
From the text: Compounds of the CB3717 type are believed to act as anti-tumour agents by inhibiting the enzyme thymidylate synthetase. The anti-tumour activity of CB3717 may be assessed in vitro by determining its inhibitory effect on that enzyme, and in cell cultures by its inhibitory effect on cancer cell lines such as the mouse leukaemia cell lines L1210 and L5178Y TK-/- and the breast cancer cell line MCF-7.
(b) An assay which determines the ability of a test compound to inhibit the growth of the leukaemia cell line L1210 in cell culture. The test is similar to that described in UK Patent Specification No. 2065653B;

thymidylate synthetase = target: T1, thymidylate synthetase (Mus musculus, UniProt P07607); assay: Test (a): in vitro inhibition of thymidylate synthetase (partially purified from L1210 mouse leukaemia cells); type: biochemical; settings: enzyme partially purified from L1210 mouse leukaemia cells; read-out: IC50 against thymidylate synthetase [Test (a)]
T1 construct: obtained in partially purified form from L1210 mouse leukaemia cells; endogenous in cells; host or cells: L1210 mouse leukaemia cells (enzyme partially purified)
T1 sequence (P07607 whole entry): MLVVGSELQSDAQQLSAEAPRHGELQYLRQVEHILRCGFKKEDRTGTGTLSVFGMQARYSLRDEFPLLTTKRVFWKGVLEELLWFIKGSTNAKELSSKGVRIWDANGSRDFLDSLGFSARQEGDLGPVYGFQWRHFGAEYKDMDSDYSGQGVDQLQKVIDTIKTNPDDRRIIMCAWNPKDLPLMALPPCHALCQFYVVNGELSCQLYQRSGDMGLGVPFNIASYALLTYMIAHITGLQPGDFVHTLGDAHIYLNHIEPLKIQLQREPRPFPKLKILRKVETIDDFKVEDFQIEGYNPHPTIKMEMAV
From the text: (a) An in vitro assay which determines the ability of a test compound to inhibit the enzyme thymidylate synthetase. Thymidylate synthetase may be obtained in partially purified form from L1210 mouse leukaemia cells and utilised using the procedures described by Jackman et al. (Cancer Res., 1986, 46, 2810);

| Structure (SMILES) | activity against human breast, ovarian and liver cancer [1] | toxicity in humans (liver and kidney) | IC50 (L1210 cell line) [µM] | IC50 (thymidylate synthetase) [µM] |
| --- | --- | --- | --- | --- |
| C#CCN(Cc1ccc2nc(N)[nH]c(=O)c2c1)c1ccc(C(=O)N[C@@H](CCC(=O)O)C(=O)O)cc1 [CB3717] | promising activity against human breast, ovarian and liver cancer | symptoms of toxicity in humans, particularly in relation to the liver and kidney | – | – |
| C#CCN(Cc1ccc2nc(C)nc(O)c2c1)c1ccc(C(=O)NCCC)cc1 [p-[N-(3,4-dihydro-2-methyl-4-oxoquinazolin-6-ylmethyl)-N-(prop-2-ynyl)amino]-N-propylbenzamide] | – | – | 7 | 1.8 |
